Laboratory results reported in US20210267204A1, “MICROBIOCIDAL OXADIAZOLE DERIVATIVES” (SYNGENTA CROP PROTECTION AG, priority 2018, published 2021).

Columns and labels:
[1] = test system: Puccinia recondita f. sp. tritici; experiment: Fungicidal activity against Puccinia recondita f. sp. tritici / wheat / leaf disc preventative (brown rust); format: in vivo; settings: foliar, 200 ppm in the applied formulation, wheat leaf segments cv. Kanzler, inoculated 1 day after application, assessed 7 to 9 days after application, compared to untreated, read-out: disease control
Protocol: Leaf disks or leaf segments of various plant species are cut from plants grown in a greenhouse. The cut leaf disks or segments are placed in multiwell plates (24-well format) onto water agar. The leaf disks are sprayed with a test solution before (preventative) or after (curative) inoculation. Compounds to be tested are prepared as DMSO solutions (max. 10 mg/mL) which are diluted to the appropriate concentration with 0.025% Tween20 just before spraying. The inoculated leaf disks or segments are incubated under defined conditions (temperature, relative humidity, light, etc.) according to the respective test system. A single evaluation of disease level is carried out 3 to 14 days after inoculation, depending on the pathosystem. Percent disease control relative to the untreated check leaf disks or segments is then calculated. Wheat leaf segments cv. Kanzler were placed on agar in multiwell plates (24-well format) and sprayed with the formulated test compound diluted in water. The leaf disks were inoculated with a spore suspension of the fungus 1 day after application. The inoculated leaf segments were incubated at 19° C. and 75% relative humidity (rh) under a light regime of 12 hours light/12 hours darkness in a climate cabinet and the activity of a compound was assessed as percent disease control compared to untreated when an appropriate level of disease damage appears in untreated check leaf segments (7 to 9 days after application). The following compounds at 200 ppm in the applied formulation give at least 80% disease control in this test when compared to untreated control leaf disks under the same conditions, which show extensive disease development.

[2] = test system: Glomerella lagenarium (Colletotrichum lagenarium); experiment: Fungicidal activity against Glomerella lagenarium (Colletotrichum lagenarium) liquid culture / cucumber / preventative (anthracnose); format: cell-based; settings: Colletotrichum orbiculare; 20 ppm in the applied formulation; liquid culture in PDB, 24° C.; 3 to 4 days after application; compared to untreated control; read-out: disease control (inhibition of growth measured photometrically)
Protocol: Mycelia fragments or conidia suspensions of a fungus prepared either freshly from liquid cultures of the fungus or from cryogenic storage, are directly mixed into nutrient broth. DMSO solutions of the test compound (max. 10 mg/mL) are diluted with 0.025% Tween20 by a factor of 50 and 10 μL of this solution is pipetted into a microtiter plate (96-well format). The nutrient broth containing the fungal spores/mycelia fragments is then added to give an end concentration of the tested compound. The test plates are incubated in the dark at 24° C. and 96% relative humidity (rh). The inhibition of fungal growth is determined photometrically after 2 to 7 days, depending on the pathosystem, and percent antifungal activity relative to the untreated check is calculated. Conidia of the fungus from cryogenic storage are directly mixed into nutrient broth (PDB—potato dextrose broth). After placing a (DMSO) solution of test compound into a microtiter plate (96-well format), the nutrient broth containing the fungal spores is added. The test plates are incubated at 24° C. and the inhibition of growth is measured photometrically 3 to 4 days after application. The following compounds at 20 ppm in the applied formulation give at least 80% disease control in this test when compared to untreated control under the same conditions, which show extensive disease development.

[3] = test system: Puccinia recondita f. sp. tritici; experiment: Fungicidal activity against Puccinia recondita f. sp. tritici / wheat / leaf disc curative (brown rust); format: in vivo; settings: foliar, 200 ppm in the applied formulation, wheat leaf segments cv. Kanzler, applied 1 day after inoculation, assessed 6 to 8 days after application, compared to untreated, read-out: disease control
Protocol: Leaf disks or leaf segments of various plant species are cut from plants grown in a greenhouse. The cut leaf disks or segments are placed in multiwell plates (24-well format) onto water agar. The leaf disks are sprayed with a test solution before (preventative) or after (curative) inoculation. Compounds to be tested are prepared as DMSO solutions (max. 10 mg/mL) which are diluted to the appropriate concentration with 0.025% Tween20 just before spraying. The inoculated leaf disks or segments are incubated under defined conditions (temperature, relative humidity, light, etc.) according to the respective test system. A single evaluation of disease level is carried out 3 to 14 days after inoculation, depending on the pathosystem. Percent disease control relative to the untreated check leaf disks or segments is then calculated. Wheat leaf segments cv. Kanzler are placed on agar in multiwell plates (24-well format). The leaf segments are then inoculated with a spore suspension of the fungus. Plates were stored in darkness at 19° C. and 75% relative humidity. The formulated test compound diluted in water was applied 1 day after inoculation. The leaf segments were incubated at 19° C. and 75% relative humidity under a light regime of 12 hours light/12 hours darkness in a climate cabinet and the activity of a compound was assessed as percent disease control compared to untreated when an appropriate level of disease damage appears in untreated check leaf segments (6 to 8 days after application). The following compounds at 200 ppm in the applied formulation give at least 80% disease control in this test when compared to untreated control leaf disks under the same conditions, which show extensive disease development.

Phakopsora pachyrhizi = experiment: Fungicidal activity against Phakopsora pachyrhizi / soybean / leaf disc preventative (Asian soybean rust); format: in vivo; settings: foliar, 200 ppm in the applied formulation, soybean leaf disks, inoculated one day after application, assessed 12 to 14 days after application, compared to untreated, read-out: disease control
Protocol: Leaf disks or leaf segments of various plant species are cut from plants grown in a greenhouse. The cut leaf disks or segments are placed in multiwell plates (24-well format) onto water agar. The leaf disks are sprayed with a test solution before (preventative) or after (curative) inoculation. Compounds to be tested are prepared as DMSO solutions (max. 10 mg/mL) which are diluted to the appropriate concentration with 0.025% Tween20 just before spraying. The inoculated leaf disks or segments are incubated under defined conditions (temperature, relative humidity, light, etc.) according to the respective test system. A single evaluation of disease level is carried out 3 to 14 days after inoculation, depending on the pathosystem. Percent disease control relative to the untreated check leaf disks or segments is then calculated. Soybean leaf disks are placed on water agar in multiwell plates (24-well format) and sprayed with the formulated test compound diluted in water. One day after application leaf discs are inoculated by spraying a spore suspension on the lower leaf surface. After an incubation period in a climate cabinet of 24-36 hours in darkness at 20° C. and 75% rh leaf disc are kept at 20° C. with 12 hours light/day and 75% rh. The activity of a compound is assessed as percent disease control compared to untreated when an appropriate level of disease damage appears in untreated check leaf disks (12 to 14 days after application). The following compounds at 200 ppm in the applied formulation give at least 80% disease control in this test when compared to untreated control leaf disks under the same conditions, which show extensive disease development.

Row | melting point [°C] | SMILES | pest or weed control at 200 ppm [1] [%] | inhibition at 20 ppm [2] [%] | pest or weed control at 200 ppm [3] [%] | pest or weed control at 200 ppm (Phakopsora pachyrhizi) [%]
1 | 159 to 164 | CNC(=S)c1ccnn1Cc1ccc(-c2noc(C(F)(F)F)n2)cc1 [Compound 1.1, N-methyl-2-[[4-[5-(trifluoromethyl)-1,2,4-oxadiazol-3-yl]phenyl]methyl] pyrazole-3-carbothioamide] | ≥ 80 | ≥ 80 | ≥ 80 | ≥ 80
2 | – | CN(C)C(=S)c1ncn(Cc2ccc(-c3noc(C(F)(F)F)n3)cc2)n1 [Compound 1.2, N,N-dimethyl-1-[[4-[5-(trifluoromethyl)-1,2,4-oxadiazol-3-yl]phenyl]methyl]-1,2,4-triazole-3-carbothioamide] | ≥ 80 | ≥ 80 | ≥ 80 | ≥ 80
3 | – | FC(F)(F)c1nc(-c2ccc(Cn3ccc(C(=S)NC4CC4)n3)cc2)no1 [Compound 1.3, N-cyclopropyl-1-[[4-[5-(trifluoromethyl)-1,2,4-oxadiazol-3-yl]phenyl]methyl] pyrazole-3-carbothioamide] | ≥ 80 | ≥ 80 | ≥ 80 | ≥ 80
4 | – | CNC(=S)c1ncnn1Cc1ccc(-c2noc(C(F)(F)F)n2)cc1 [Compound 1.4, N-methyl-2-[[4-[5-(trifluoromethyl)-1,2,4-oxadiazol-3-yl]phenyl]methyl]-1,2,4-triazole-3-carbothioamide] | ≥ 80 | ≥ 80 | ≥ 80 | ≥ 80
5 | 86 to 95 | CNC(=S)c1ncnn1Cc1ccc(-c2noc(C(F)(F)F)n2)s1 [Compound 1.5, N-methyl-2-[[5-[5-(trifluoromethyl)-1,2,4-oxadiazol-3-yl]-2-thienyl]methyl]-1,2,4-triazole-3-carbothioamide] | ≥ 80 | ≥ 80 | ≥ 80 | ≥ 80
6 | 118 to 122 | CNC(=S)c1ccn(Cc2ccc(-c3noc(C(F)(F)F)n3)s2)n1 [Compound 1.6, N-methyl-1-[[5-[5-(trifluoromethyl)-1,2,4-oxadiazol-3-yl]-2-thienyl]methyl]pyrazole-3-carbothioamide] | ≥ 80 | ≥ 80 | ≥ 80 | ≥ 80
7 | – | CCONC(=S)c1ccn(Cc2ccc(-c3noc(C(F)(F)F)n3)s2)n1 [Compound 1.7, N-ethoxy-1-[[5-[5-(trifluoromethyl)-1,2,4-oxadiazol-3-yl]-2-thienyl]methyl]pyrazole-3-carbothioamide] | ≥ 80 | ≥ 80 | ≥ 80 | ≥ 80
8 | 112 to 118 | CN(C)C(=S)c1ncn(Cc2ccc(-c3noc(C(F)(F)F)n3)s2)n1 [Compound 1.8, N,N-dimethyl-1-[[5-[5-(trifluoromethyl)-1,2,4-oxadiazol-3-yl]-2-thienyl]methyl]-1,2,4-triazole-3-carbothioamide] | ≥ 80 | ≥ 80 | ≥ 80 | ≥ 80
9 | – | CNC(=S)c1cnn(C(C)c2ccc(-c3noc(C(F)(F)F)n3)s2)c1 (stereo not drawn) [Compound 1.9, N-methyl-1-[1-[5-[5-(trifluoromethyl)-1,2,4-oxadiazol-3-yl]-2-thienyl]ethyl]pyrazole-4-carbothioamide] | ≥ 80 | ≥ 80 | ≥ 80 | ≥ 80
10 | 75 to 83 | CC(c1ccc(-c2noc(C(F)(F)F)n2)s1)n1cc(C(=S)N2CCC2)cn1 (stereo not drawn) [Compound 1.10, azetidin-1-yl-[1-[1-[5-[5-(trifluoromethyl)-1,2,4-oxadiazol-3-yl]-2-thienyl]ethyl]pyrazol-4-yl]methanethione] | ≥ 80 | ≥ 80 | ≥ 80 | ≥ 80
11 | – | FC(F)(F)c1nc(-c2ccc(Cn3ccnc3C(=S)NC3CC3)s2)no1 [Compound 1.11, N-cyclopropyl-1-[[5-[5-(trifluoromethyl)-1,2,4-oxadiazol-3-yl]-2-thienyl]methyl] imidazole-2-carbothioamide] | ≥ 80 | ≥ 80 | ≥ 80 | ≥ 80
12 | 170 to 172 | NC(=S)c1nccn1Cc1ccc(-c2noc(C(F)(F)F)n2)s1 [Compound 1.12, 1-[[5-[5-(trifluoromethyl)-1,2,4-oxadiazol-3-yl]-2-thienyl]methyl] imidazole-2-carbothioamide] | ≥ 80 | ≥ 80 | ≥ 80 | ≥ 80
13 | 165.5 to 167 | FC(F)(F)c1nc(-c2ccc(Cn3cc(CNC(=S)C4CC4)cn3)s2)no1 [Compound 1.13, N-[[1-[[5-[5-(trifluoromethyl)-1,2,4-oxadiazol-3-yl]-2-thienyl]methyl]pyrazol-4-yl]methyl] cyclopropane carbothioamide] | ≥ 80 | ≥ 80 | ≥ 80 | ≥ 80
14 | – | CCCNC(=S)c1nccn1Cc1ccc(-c2noc(C(F)(F)F)n2)s1 [Compound 1.15, N-propyl-1-[[5-[5-(trifluoromethyl)-1,2,4-oxadiazol-3-yl]-2-thienyl]methyl] imidazole-2-carbothioamide] | ≥ 80 | ≥ 80 | ≥ 80 | ≥ 80
